The results in this text go back to patent publication US11306105B2, “Cyano thienotriazolodiazepines and uses thereof” (Dana-Farber Cancer Institute, Inc., priority 2015, dated 2022).

Like-named read-outs stand apart in the source and are kept apart here.

One data set concerns the target BRD4(1) (Homo sapiens (Human), UniProt O60885). Briefly: AlphaScreen acetyl-histone binding assay, BRD4(1). The protocol:
(§1) The IC50 of the compounds were determined by ALPHASCREENING assays for BRD4 and BRDT proteins. NMC797 cell line is a BRD4 dependent NUT midline carcinoma line.
(§2) Acetyl-Histone Binding Assay. Assays were performed as described previously with minor modifications from the manufacturer's protocol (PerkinElmer, USA). All reagents were diluted in 50 mM HEPES, 100 mM NaCl, 0.1% BSA, pH 7.4 supplemented with 0.05% CHAPS and allowed to equilibrate to room temperature prior to addition to plates. A 24-point 1:2 serial dilution of the ligands was prepared over the range of 150-0 μM and 4 μl transferred to low-volume 384-well plates (ProxiPlate™-384 Plus, PerkinElmer, USA), followed by 4 μl of HIS-tagged protein (BRD4/1, 250 nM, BRD4/2 and CREBBP, 2000 nM). […] Plates were sealed and incubated for a further 30 minutes, before the addition of 4 μl of streptavidin-coated donor beads (25 μg/ml) and 4 μl nickel chelate acceptor beads (25 μg/ml) under low light conditions. Plates were foil-sealed to protect from light, incubated at room temperature for 60 minutes and read on a PHERAstar FS plate reader (BMG Labtech, Germany) using an AlphaScreen 680 excitation/570 emission filter set. IC50 values were calculated in Prism 5 (GraphPad Software, USA) after normalization against corresponding DMSO controls and are given as the final concentration of compound in the 20 μl reaction volume.
(Alpha assays give light when donor and acceptor beads are brought close together.)

Data set [1] deals with NMC797 cell line (BRD4 dependent NUT midline carcinoma line). Briefly: Cell proliferation assay (ATP content), NMC797. It counts as cell-based. The following applies: NMC797 cells, 48 h incubation. How it is done: as §1
Cell Proliferation Assay. Cells were seeded into white, 384-well microtiter plates (Nunc) at 500 cells per well in a total volume of 50 μL media. The 797, TT, and TE10 cells were grown in DMEM containing 1% penicillin/streptomycin and 10% FBS. The Per403 cells were grown in DMEM containing 1% penicillin/streptomycin and 20% FBS. Compounds were delivered to microtiter assay plates by robotic pin transfer (PerkinElmer JANUS equipped with a V&P Scientific 100 nL pin tool). Following a 48 h incubation at 37° C., cells were lysed and wells were assessed for total ATP content using a commercial proliferation assay (Cell TITERGLO; Promega). Replicate measurements were analyzed with respect to dose and estimates of IC50 were calculated by logistic regression ([…] PRISM).

Another data set deals with BRDT(1) (Homo sapiens (Human), UniProt Q58F21). The data set is described as follows: AlphaScreen acetyl-histone binding assay, BRDT(1). How it is done: as §1, §2
Data set [2] can be described thus: Pharmacokinetics in male CD1 mice, IV administration. The data set is classed as in vivo, mouse. The note with it: IV 5 mg/kg, whole blood; for AUC(0-inf) / AUC(0-t) / MRT inf / clearance / half-life / Vd: mouse; for half-life: read-out: Terminal t1/2 (converted); for Vd: read-out: VSS. The protocol:
(§3) Pharmacokinetic parameters were determined by administration of a candidate bromodomain inhibitor to male CD1 mice. Intravenous doses were delivered at 5 mg/kg, and oral doses at 10 mg/kg (N=3). […] The compound concentration in mouse blood was monitored over 24 hour time period to check the compound concentration in blood at 5 min, […], 1 h, 2 h, 6 h, 12, 24 h via a series bleeding.

The nature of data set [3]: Pharmacokinetics in male CD1 mice, oral administration. The note with it: for half-life: read-out: Terminal t1/2 (converted); for F: oral 10 mg/kg vs IV 5 mg/kg. It counts as in vivo, mouse. How it is done: as §3
Setting [4] is: mouse, oral 10 mg/kg, whole blood.
Setting [5] is: mouse, oral 10 mg/kg, whole blood, read-out: Cmax.
Setting [6] is: mouse, oral 10 mg/kg, whole blood, read-out: Tmax.

For the compound `Cc1sc2c(c1C)C(c1ccc(C#N)cc1)=N[C@@H](CC(=O)NCC(F)(F)F)c1nnc(C)n1-2` [Compound 111], the half-maximal inhibitory concentration (IC50) at BRD4(1) stood at 117 nM; in data set [1] (NMC-797), 125 nM.
Take `Cc1c(CC#N)sc2c1C(c1ccc(Cl)cc1)=N[C@@H](CC(=O)N1CCOCC1)c1nnc(C)n1-2` [Compound 210]: the half-inhibitory concentration (IC50) on BRDT(1) was found to be 1420 nM; at BRD4(1), 466 nM; in data set [1] (NMC-797), 118 nM.
For `COC(=O)C[C@@H]1N=C(c2ccc(Cl)cc2)c2c(sc(CNS(=O)(=O)c3ccccc3)c2C)-n2c(C)nnc21` [Compound 300], in that order: 60 nM, 16 nM and 61 nM.
The matching figures for `Cc1sc2c(c1C)C(c1ccc(C#N)cc1)=N[C@@H](CC(=O)NCCN1CCOCC1)c1nnc(C)n1-2` [Compound 104]: 216 nM, 53 nM and 183 nM.
Take `Cc1c(CC#N)sc2c1C(c1ccc(Cl)cc1)=N[C@@H](CC(=O)NCCO)c1nnc(C)n1-2` [Compound 206]: the concentration for half-maximal inhibition (IC50) at BRDT(1) worked out at 642 nM; at BRD4(1) it was 197 nM; in data set [1] (NMC-797), 9630 nM.
For `Cc1c(CC#N)sc2c1C(c1ccc(Cl)cc1)=N[C@@H](CC(N)=O)c1nnc(C)n1-2` [Compound 205], in that order: 612 nM, 206 nM and 903 nM.
As for `CCNC(=O)C[C@@H]1N=C(c2ccc(C#N)cc2)c2c(sc(C)c2C)-n2c(C)nnc21` [Compound 102], the concentration for half-maximal inhibition (IC50) on BRDT(1) was 458 nM; at BRD4(1), 120 nM; in data set [1] (NMC-797) it was 275 nM.
Regarding `Cc1sc2c(c1C)C(c1ccc(C#N)cc1)=N[C@@H](CC(=O)NCCCN1CCN(C)CC1)c1nnc(C)n1-2` [Compound 103], the values for the half-inhibitory concentration (IC50) (at BRDT(1); on BRD4(1); in data set [1] (NMC-797)) were 120 nM, 50 nM and 333 nM, respectively.
Compound `Cc1sc2c(c1C)C(c1ccc(C#N)cc1)=N[C@@H](CC(=O)OC(C)(C)C)c1nnc(C)n1-2` [Compound 100] yielded an IC50 in data set [1] (NMC-797) of 185 nM.
Turning to `Cc1sc2c(c1C)C(c1ccc(C#N)cc1)=N[C@@H](CC(N)=O)c1nnc(C)n1-2` [Compound 105], the concentration for half-maximal inhibition (IC50) on BRDT(1) was determined as 565 nM; at BRD4(1) it was 174 nM; in data set [1] (NMC-797), 366 nM.
The matching figures for `Cc1c(CC#N)sc2c1C(c1ccc(Cl)cc1)=N[C@@H](CC(=O)NC[C@@H](C)O)c1nnc(C)n1-2` [Compound 208]: 1200 nM, 415 nM and 6100 nM.
In the case of `Cc1c(CC#N)sc2c1C(c1ccc(Cl)cc1)=N[C@@H](CC(=O)NCCN1CCOCC1)c1nnc(C)n1-2` [Compound 204], the values for the IC50 (at BRD4(1); in data set [1] (NMC-797)) were 300 nM and 3460 nM, respectively.
For `CCNC(=O)C[C@@H]1N=C(c2ccc(Cl)cc2)c2c(sc(CC#N)c2C)-n2c(C)nnc21` [Compound 202], in that order: 310 nM and 1130 nM.
Compound `COC(=O)C[C@@H]1N=C(c2ccc(Cl)cc2)c2c(sc(CC#N)c2C)-n2c(C)nnc21` [Compound 200] came in with a half-inhibitory concentration (IC50) at BRDT(1) of 132 nM. In addition, the IC50 at BRD4(1) stood at 48 nM. Further, in data set [1] (NMC-797), the concentration for half-maximal inhibition (IC50) is 52 nM. In data set [2], the area under the curve AUC(0-inf) was 4050 ng·h/mL, the area under the curve AUC(0-t) is 4000 ng·h/mL, the MRT inf is 76.8 min and the clearance was 20.8 mL/min/kg. In addition, in data set [2], the half-life is 82.8 min and the Vd amounted to 1.57 L/kg. Besides, in data set [3] (setting [4]), the AUC(0-inf) worked out at 6040 ng·h/mL, the area under the curve AUC(0-t) was determined as 5520 ng·h/mL and the half-life is 118 min. The Cmax in data set [3] (setting [5]) came to 1500 ng/mL. Also, the Tmax in data set [3] (setting [6]) was 30 min. Besides, the F in data set [3] was 72.4%.
For `Cc1c(CC#N)sc2c1C(c1ccc(Cl)cc1)=N[C@@H](CC(=O)NCCCN1CCN(C)CC1)c1nnc(C)n1-2` [Compound 203], the IC50 on BRD4(1) was found to be 134 nM; in data set [1] (NMC-797), 6790 nM.
The matching figures for `Cc1c(CC#N)sc2c1C(c1ccc(Cl)cc1)=N[C@@H](CC(=O)NC[C@H](C)O)c1nnc(C)n1-2` [Compound 207]: 623 nM and 4250 nM.
Turning to `Cc1sc2c(c1C)C(c1ccc(C#N)cc1)=N[C@@H](CC(=O)NCCO)c1nnc(C)n1-2` [Compound 106], the IC50 at BRDT(1) stood at 105 nM; on BRD4(1) it was 33 nM; in data set [1] (NMC-797), 328 nM.
On to `Cc1sc2c(c1C)C(c1ccc(C#N)cc1)=N[C@@H](CC(=O)NC[C@H](C)O)c1nnc(C)n1-2` [Compound 107], for which the half-inhibitory concentration (IC50) at BRDT(1) came to 187 nM. Moreover, the IC50 on BRD4(1) came out at 61 nM. The compound also had a concentration for half-maximal inhibition (IC50) in data set [1] (NMC-797) of 107 nM. In data set [2], the AUC(0-inf) is 2920 ng·h/mL, the AUC(0-t) is 2920 ng·h/mL, the mean residence time (MRT inf) worked out at 20.2 min and the clearance is 29.3 mL/min/kg. Further, in data set [2], the half-life was 24.7 min and the Vd amounted to 0.583 L/kg. Also, in data set [3] (setting [4]), the AUC(0-inf) is 532 ng·h/mL, the AUC(0-t) was 512 ng·h/mL and the half-life is 97.2 min. For the same compound, in data set [3] (setting [5]), the Cmax amounted to 319 ng/mL. The time to peak (Tmax) in data set [3] (setting [6]) is 30 min. The compound further came in with a F in data set [3] of 9.10%.
For `Cc1c(CC#N)sc2c1C(c1ccc(Cl)cc1)=N[C@@H](CC(=O)Nc1ccc(O)cc1)c1nnc(C)n1-2` [Compound 201], the IC50 at BRD4(1) stood at 175 nM; in data set [1] (NMC-797), 1900 nM.
As for `Cc1sc2c(c1C)C(c1ccc(C#N)cc1)=N[C@@H](CC(=O)N1CCOCC1)c1nnc(C)n1-2` [Compound 110], the IC50 on BRDT(1) came to 197 nM; at BRD4(1), 89 nM; in data set [1] (NMC-797) it was 116 nM.
For `Cc1sc2c(c1C)C(c1ccc(C#N)cc1)=N[C@@H](CC(=O)NC[C@@H](C)O)c1nnc(C)n1-2` [Compound 108], in that order: 133 nM, 52 nM and 258 nM.
The compound `Cc1sc2c(c1C)C(c1ccc(Cl)cc1)=N[C@@H](CC(=O)OC(C)(C)C)c1nnc(C)n1-2` [JQ1, reference compound] gave an IC50 in data set [1] of 21 nM. In data set [2], this compound yielded an AUCINF of 2130 ng·h/mL, an AUClast of 2130 ng·h/mL, a CL of 39.2 mL/min/kg and an MRTINF of 51.7 min. Besides, in data set [3] (oral 10 mg/kg, whole blood), the AUCINF is 2090 ng·h/mL, the AUClast stood at 2040 ng·h/mL, the peak concentration (Cmax) was determined as 1180 ng/mL and the Tmax was found to be 15 min.
For the compound `Cc1sc2c(c1C)C(c1ccc(C#N)cc1)=N[C@@H](CC(=O)Nc1ccc(O)cc1)c1nnc(C)n1-2` [Compound 101], the IC50 amounted to 120 nM on BRDT(1), 79 nM on BRD4(1) and 133 nM in data set [1] (NMC-797).
Regarding `Cc1c(CC#N)sc2c1C(c1ccc(Cl)cc1)=N[C@@H](CC(=O)NCC(F)F)c1nnc(C)n1-2` [Compound 209], the 50% inhibitory concentration (IC50) on BRD4(1) turned out to be 386 nM; in data set [1] (NMC-797) it was 912 nM.
With `Cc1sc2c(c1C)C(c1ccc(C#N)cc1)=N[C@@H](CC(=O)NCC(F)F)c1nnc(C)n1-2` [Compound 109], the IC50 at BRDT(1) amounted to 142 nM. Moreover, the IC50 at BRD4(1) was found to be 37 nM. Besides, in data set [1] (NMC-797), half-maximal inhibition (IC50) required 70 nM. Further, in data set [2], the AUC(0-inf) is 3510 ng·h/mL, the area under the curve AUC(0-t) is 3500 ng·h/mL, the mean residence time (MRT inf) is 49.7 min and the clearance was 23.7 mL/min/kg. For the same compound, in data set [2], the half-life was 66.6 min and the Vd was 1.18 L/kg. In data set [3] (setting [4]), the AUC(0-inf) worked out at 3780 ng·h/mL, the exposure AUC(0-t) is 3630 ng·h/mL and the half-life was 101 min. Besides, the highest concentration (Cmax) in data set [3] (setting [5]) was 1210 ng/mL. Further, in data set [3] (setting [6]), the time of peak concentration (Tmax) came out at 40 min. For the same compound, the F in data set [3] was 53.8%.

As usually defined, the IC50 is the midpoint of a concentration-inhibition curve. A lower IC50 goes with inhibition by little substance. By AUC(0-inf) is commonly meant total exposure, with the tail of the curve extrapolated. What is called AUC(0-t) is the area under the concentration-time curve up to a stated or last time point. Read a low AUC(0-t) as low exposure. Broadly, the MRT inf is the average time that molecules of a dose stay in the body. What is called clearance is the rate of elimination divided by the concentration. As a reminder, the Cmax is the highest concentration seen after dosing. By Tmax is commonly meant the time from dosing to the highest level.
